This note sets out measurements from ChEMBL document CHEMBL1150221, “Isolation and structure determination of nostocyclopeptides A1 and A2 from the terrestrial cyanobacterium Nostoc sp. ATCC53789” (J Nat Prod, 2001).

One assay concerns the target T1, Papain (Carica papaya, UniProt P00784).
T1 sequence (P00784 whole entry): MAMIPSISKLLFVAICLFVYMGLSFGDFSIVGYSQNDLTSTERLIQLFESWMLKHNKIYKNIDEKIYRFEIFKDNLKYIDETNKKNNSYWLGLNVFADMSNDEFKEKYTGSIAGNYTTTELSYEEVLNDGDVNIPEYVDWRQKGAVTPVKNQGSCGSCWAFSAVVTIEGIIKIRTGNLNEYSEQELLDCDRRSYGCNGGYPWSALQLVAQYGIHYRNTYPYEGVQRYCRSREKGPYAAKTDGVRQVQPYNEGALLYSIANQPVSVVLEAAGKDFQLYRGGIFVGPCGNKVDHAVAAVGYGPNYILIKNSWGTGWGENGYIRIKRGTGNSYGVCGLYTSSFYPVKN
Put plainly: Inhibition of papaya papain.

The next assay concerns KB. Put plainly: Cytotoxicity against human KB cells. In kind it is functional, cell-based.
The test system of a further assay is LoVo. The assay can be described thus: Cytotoxicity against human LoVo cells. In kind it is functional, cell-based.
The nature of assay [1]: Inhibition of elastase.
Assay [2] has as its system Mycobacterium tuberculosis. Put plainly: […] activity against Mycobacterium tuberculosis 25177 at 25 ug/disk. In kind it is functional, organism-based.
Assay [3] is described as follows: Inhibition of chymotrypsin.
For the next assay, the system named is Candida albicans. The assay can be described thus: Antifungal activity against Candida albicans at 25 ug/disk. In kind it is functional, organism-based.
A short description of assay [4]: Inhibition of trypsin.
For the next assay, the system named is Pseudomonas aeruginosa. Put plainly: […] activity against Pseudomonas aeruginosa at 25 ug/disk. In kind it is functional, organism-based.
The target in a further assay is Plasminogen (Homo sapiens, UniProt P00747). Put plainly: Inhibition of plasmin.
A short description of assay [5]: Inhibition of protease.
Assay [6] concerns Mycobacterium tuberculosis. Put plainly: […] activity against Mycobacterium tuberculosis 35818 at 25 ug/disk. In kind it is functional, organism-based.
A further assay has as its target Prothrombin (Homo sapiens, UniProt P00734). The assay can be described thus: Inhibition of thrombin.

Active and inactive are the calls of the source. The rule behind the calls is not given here.

Plasminogen, sequence (P00747 97-580 limits assumed): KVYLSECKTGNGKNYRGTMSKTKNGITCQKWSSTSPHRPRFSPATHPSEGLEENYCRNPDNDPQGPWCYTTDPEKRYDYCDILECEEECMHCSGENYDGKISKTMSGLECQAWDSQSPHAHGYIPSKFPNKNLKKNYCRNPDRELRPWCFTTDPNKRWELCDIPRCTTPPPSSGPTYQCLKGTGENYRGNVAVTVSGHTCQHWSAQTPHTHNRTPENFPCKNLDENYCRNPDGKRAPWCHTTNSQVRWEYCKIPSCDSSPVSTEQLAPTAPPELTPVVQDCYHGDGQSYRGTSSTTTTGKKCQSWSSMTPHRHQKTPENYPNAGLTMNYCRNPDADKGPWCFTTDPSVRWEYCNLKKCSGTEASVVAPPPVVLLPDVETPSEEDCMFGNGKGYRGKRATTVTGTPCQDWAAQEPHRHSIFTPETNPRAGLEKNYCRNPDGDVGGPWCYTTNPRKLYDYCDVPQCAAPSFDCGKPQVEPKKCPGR
Plasminogen, sequence (P00747 581-810 limits assumed): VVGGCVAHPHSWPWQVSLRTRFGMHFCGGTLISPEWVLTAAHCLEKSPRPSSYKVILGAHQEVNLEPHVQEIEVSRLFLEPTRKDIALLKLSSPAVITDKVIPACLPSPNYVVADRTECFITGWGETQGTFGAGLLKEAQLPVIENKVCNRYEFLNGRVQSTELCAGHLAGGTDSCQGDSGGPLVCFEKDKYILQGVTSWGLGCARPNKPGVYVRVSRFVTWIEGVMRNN

Consider `CC[C@H](C)[C@@H]1NC(=O)[C@@H](CCC(N)=O)NC(=O)CNC(=O)[C@H](Cc2ccc(O)cc2)/N=C/[C@H](CC(C)C)NC(=O)[C@@H]2C[C@H](C)CN2C(=O)[C@H](CO)NC1=O` [NOSTOCYCLOPEPTIDE A1], for which the half-maximal inhibitory concentration (IC50) – broadly, the point on the concentration scale where inhibition reaches its midpoint – at Papain is less than 25 µM; with KB, 1 µM; in the assay with LoVo it was 1 µM; in assay [1], less than 25 µM; in assay [3] it was less than 25 µM; in assay [4], more than 50 µM. The IC50 at Plasminogen and on Prothrombin was more than 50 µM throughout. The result (in assay [2]; in the assay with Candida albicans; in the assay with Pseudomonas aeruginosa; in [5]; in assay [6]) was inactive.

Regarding `CC[C@H](C)[C@@H]1NC(=O)[C@@H](CCC(N)=O)NC(=O)CNC(=O)[C@H](Cc2ccc(O)cc2)/N=C/[C@H](Cc2ccccc2)NC(=O)[C@@H]2C[C@H](C)CN2C(=O)[C@H](CO)NC1=O` [NOSTOCYCLOPEPTIDE A2], the concentration for half-maximal inhibition (IC50) was less than 25 µM at Papain; 1 µM in the assay with KB; 1 µM in the assay with LoVo; less than 25 µM in assay [1]; less than 25 µM in [3]; more than 50 µM in assay [4]. Moreover, the IC50 at Plasminogen and against Prothrombin was more than 50 µM throughout. The result (in [2]; in the assay on Candida albicans; with Pseudomonas aeruginosa; in assay [5]; in assay [6]) was inactive.
